SMILES strings stand for the structures.

The first assay relates to genotype A, "Long" strain RSV. In words: RSV-A assay (CPE protection in Hep-2 cells, ATPlite readout). It counts as cell-based, Human respiratory syncytial virus (HRSV). Particulars: human respiratory syncytial virus, RSV-A Long strain, MOI 0.1, CPE protection, read-out: Human RSV-A (“Long”) EC50. An excerpt: Hep-2 cells, (originally derived from tumors grown in irradiated-cortisonised weanling rats that had been injected with epidermoid carcinoma tissue from the larynx of a person, but later found to be indistinguishable from HeLa cells by PCR DNA analysis), were used for the culturing of genotype A, “Long” strain RSV. Flasks were inoculated with RSV and viral stocks were collected once cytopathic effect (CPE) was greater than 90%. Viral stocks in 25% sucrose media were snap frozen using liquid nitrogen to increase viral stability. Viral stock titers were quantified by tissue culture infectious dose 50% (TCID50) using 8,000 cells per well and 3-fold viral dilutions across a 96-well plate, cultured for 4 days. Viral stock titers were also quantified by a plaque forming unit assay, as described elsewhere.
Following extensive parameter testing, the final assay is run as follows: Hep-2 cells are seeded into the inner 60 wells of a 96-well plate at 8,000 cells per well in a volume of 50 μL using Growth Media (DMEM without phenol red, 1% L-Glut, 1% Penn/Strep, 1% nonessential amino acids, 10% heat-inactivated FBS). 2-fold serial dilutions of control and test compounds are added to the wells in duplicate in a total volume of 25 μL. Viral stock is then added to the wells at a multiplicity of infection (MOI) of 0.1 in a volume of 25 μL, bringing the total volume of each well to 100 μL. The MOI is calculated using the PFU/mL, or TCID50 if unavailable. Each 96-well plate has a control column of 6 wells with cells and virus but no compound (negative control, max CPE), a column with cells but no compound or virus (positive control, minimum CPE), and a column with no cells or virus or compound (background plate/reagent control). The control wells with cells but no virus are given an additional 25 μL of growth media containing an equal quantity of sucrose as those wells receiving the viral stock in order to keep consistent in media and volume conditions. The outer wells of the plate are filled with 125 μL of moat media (DMEM, 1% Penn/Strep) to act as a thermal and evaporative moat around the test wells. Following a 5-day incubation period, the plates are read using ATPlite (50 uL added per well), which quantifies the amount of ATP (a measure of cell health) present in each well. Assay plates are read using the Envision luminometer. […] EC50 ranges are as follows: A<0.2 μM; B>0.2 μM.
For orientation: Cellular ATP, detected with luciferase, serves as a proxy for viable cell number.
As to `COc1cc(C(=O)NC[C@](O)(c2cc3c(c(-c4cc(Cl)cc(Cl)c4F)n2)OC[C@]3(C)C(N)=O)C(F)(F)F)cc2cn(C3CC3)nc12` [Example 1258], the EC50 is less than 200 nM.

Regarding `COc1cc(C(=O)NC[C@@](O)(c2cc3c(c(-c4ccc5c(c4)OC(F)(F)C5(F)F)n2)OC[C@]3(C)C(N)=O)C2CC2)cc2cn(C3CC3)nc12` [Example 1237], the EC50 is greater than 200 nM.

Turning to `COc1cc(C(=O)NC[C@@](O)(c2cc3c(c(-c4ccccc4F)n2)OC[C@]3(C)C(N)=O)C(F)(F)F)cc2cn(C3CC3)nc12` [Example 910], the EC50 is greater than 200 nM.

As to `Cc1cnc2c(OC(F)F)cc(C(=O)NC[C@](O)(c3cc4c(c(-c5ccc(F)c(Br)c5F)n3)OC[C@]4(C)C(N)=O)C3CC3)cc2c1` [Example 1207], the EC50 was less than 200 nM.

For `COc1cc(C(=O)NC[C@](O)(c2cc3c(c(-c4ccc5c(c4)OC(F)(F)C5(F)F)n2)OC[C@]3(C)C(N)=O)C2CC2)cc2cn(C3CC3)nc12` [Example 1238], the EC50 is less than 200 nM.

Consider `COc1cc(C(=O)NC[C@](O)(c2cc3c(c(-c4cc(F)c(F)c(F)c4F)n2)OC[C@]3(C)C(N)=O)C2CC2)cc2cn(C3CC3)nc12` [Example 1278], for which the EC50 is less than 200 nM.

In the case of `CNC(=O)[C@@]1(C)COc2c1cc([C@@](O)(CNC(=O)c1cc(OC)c3nn(C4CC4)cc3c1)C1CC1)nc2-c1ccc(F)cc1` [Example 1290], the EC50 was less than 200 nM.

As for `C[C@]1(C(N)=O)COc2c1cc([C@@](O)(CNC(=O)c1cc(OC3CC3)c3nn(C(F)F)cc3c1)C1CC1)nc2-c1cc(Br)c(F)cc1F` [Example 1086], the EC50 is less than 200 nM.

As for `Cc1cnc2c(OC(F)F)cc(C(=O)NC[C@](O)(c3cc4c(c(-c5ccc(C(F)(F)F)cc5)n3)OC[C@]4(C)C(N)=O)C3CC3)cc2c1` [Example 1209], the EC50 was less than 200 nM.

Turning to `COc1cc(C(=O)NC[C@](O)(c2cc3c(c(-c4c(F)ccc(Cl)c4Cl)n2)OC[C@]3(C)C(N)=O)C2CC2)cc2cn(C3CC3)nc12` [Example 1289], the EC50 is less than 200 nM.

As to `COc1cc(C(=O)NC[C@](O)(c2cc3c(c(-c4cc(Cl)c(F)cc4Cl)n2)OC[C@]3(C)C(N)=O)C2CC2)cc2cn(C3CC3)nc12` [Example 1275], the EC50 was less than 200 nM.

As for `COc1cc(C(=O)NC[C@@](O)(c2cc3c(c(-c4ccc5c(c4)OCO5)n2)OC[C@]3(C)C(N)=O)C(F)(F)F)cc2cn(C3CC3)nc12` [Example 907], the EC50 was greater than 200 nM.

As to `COc1ccc(-c2nc([C@](O)(CNC(=O)c3cc(OC)c4nn(C5CC5)cc4c3)C(F)(F)F)cc3c2OC[C@]3(C)C(N)=O)cc1OC` [Example 905], the EC50 is greater than 200 nM.

As to `COc1cc(C(=O)NC[C@](O)(c2cc3c(c(-c4ccc(F)cc4)n2)OC[C@]3(C)C(=O)NC2(C)CC2)C(F)(F)F)cc2cn(C3CC3)nc12` [Example 1176], the EC50 was less than 200 nM.

As to `COc1cc(C(=O)NC[C@@](O)(c2cc3c(c(-c4ccc(C(F)F)cc4)n2)OC[C@]3(C)C(N)=O)C(F)(F)F)cc2cn(C3CC3)nc12` [Example 895], the EC50 is greater than 200 nM.

The assay is the same for the next values; noted with them: human respiratory syncytial virus, genotype A “Long” strain RSV, MOI 0.1, CPE protection, read-out: Human RSV-A (“Long”).
`COc1cccc2oc(C(=O)NC[C@](O)(c3cc4c(c(-c5ccc(F)cc5)n3)OC[C@]4(C)C(N)=O)C(F)(F)F)cc12` [Example 430]: the EC50 was greater than 200 nM.

On to `C[C@]1(C(N)=O)COc2c1cc([C@@](O)(CNC(=O)c1nc3cccnc3s1)C(F)(F)F)nc2-c1ccc(F)cc1` [Example 335], for which the EC50 was greater than 200 nM.

Take `Cc1ccc2cc(C(=O)NC[C@](O)(c3cc4c(c(-c5ccc(F)cc5)n3)OC[C@]4(C)C(N)=O)C(F)(F)F)cc(N3CCCC3=O)c2n1` [Example 38]: the EC50 is greater than 200 nM.

In the case of `C[C@]1(C(N)=O)COc2c1cc([C@@](O)(CNC(=O)c1ccc3nc(C4CC4)cn3n1)C(F)(F)F)nc2-c1ccc(F)cc1` [Example 186], the EC50 was greater than 200 nM.

As to `Cc1cnc2c(Nc3ccc(C(F)(F)F)nn3)cc(C(=O)NC[C@](O)(c3cc4c(c(-c5ccc(F)cc5)n3)OC[C@]4(C)C(N)=O)C(F)(F)F)cc2c1` [Example 116], the EC50 was less than 200 nM.

In the case of `C[C@]1(C(N)=O)COc2c1cc([C@@](O)(CNC(=O)c1cc3ccccc3s1)C(F)(F)F)nc2-c1ccc(F)cc1` [Example 368], the EC50 was greater than 200 nM.

With `C[C@]1(C(N)=O)COc2c1cc([C@@](O)(CNC(=O)c1cc3[nH]ccc3cc1F)C(F)(F)F)nc2-c1ccc(F)cc1` [Example 387], the EC50 was greater than 200 nM.

In the case of `C[C@]1(C(N)=O)COc2c1cc([C@@](O)(CNC(=O)c1cccc3[nH]cnc13)C(F)(F)F)nc2-c1ccc(F)cc1` [Example 429], the EC50 is greater than 200 nM.

As to `CCN1Cc2cc(C(=O)NC[C@](O)(c3cc4c(c(-c5ccc(F)cc5)n3)OC[C@]4(C)C(N)=O)C(F)(F)F)ccc2C1=O` [Example 36], the EC50 is less than 200 nM.

For `Cc1cc(C(=O)NC[C@](O)(c2cc3c(c(-c4ccc(F)cc4)n2)OC[C@]3(C)C(N)=O)C(F)(F)F)no1` [Example 381], the EC50 was greater than 200 nM.

For the molecule `CC[C@]1(C(N)=O)COc2c1cc([C@@](O)(CNC(=O)c1cc(OC)c3nn(C4CC4)cc3c1)C(F)(F)F)nc2-c1ccc(F)cc1` [Example 464], the EC50 was less than 200 nM.

For `C[C@]1(C(N)=O)COc2c1cc([C@@](O)(CNC(=O)c1cc3c(cc1Cl)NC(=O)C3)C(F)(F)F)nc2-c1ccc(F)cc1` [Example 341], the EC50 was greater than 200 nM.

Take `Cc1nn(-c2ccccc2)c(C)c1C(=O)NC[C@](O)(c1cc2c(c(-c3ccc(F)cc3)n1)OC[C@]2(C)C(N)=O)C(F)(F)F` [Example 453]: the EC50 was greater than 200 nM.

In the case of `CC(C)(O)c1cn2cc(C(=O)NC[C@](O)(c3cc4c(c(-c5ccc(F)cc5)n3)OC[C@]4(C)C(N)=O)C(F)(F)F)cc(F)c2n1` [Example 66], the EC50 was greater than 200 nM.

`C[C@]1(C(N)=O)COc2c1cc([C@@](O)(CNC(=O)c1ccn3nc(C4CC4)cc3c1)C1CC1)nc2-c1ccc(F)c(Cl)c1` [Example 492]: the EC50 is less than 200 nM.

Consider `COc1ccc2cc(C(=O)NC[C@](O)(c3cc4c(c(-c5ccc(F)cc5)n3)OC[C@]4(C)C(N)=O)C(F)(F)F)n(C)c2c1` [Example 336], for which the EC50 was greater than 200 nM.

In the case of `COc1cc(C(=O)NC[C@](O)(c2cc3c(c(-c4ccc(F)cc4)n2)OC[C@]3(C)C(N)=O)C(F)(F)F)cc2cn(C3(C)CC3)nc12` [Example 232], the EC50 is less than 200 nM.

Regarding `COc1cc2cc(C(=O)NC[C@](O)(c3cc4c(c(-c5ccc(F)cc5)n3)OC[C@]4(C)C(N)=O)C(F)(F)F)ccc2nc1C` [Example 326], the EC50 is less than 200 nM.

Consider `C[C@]1(C(N)=O)COc2c1cc([C@@](O)(CNC(=O)c1cnc3cnccn13)C(F)(F)F)nc2-c1ccc(F)cc1` [Example 436], for which the EC50 is greater than 200 nM.

For the molecule `C[C@]1(C(N)=O)COc2c1cc([C@@](O)(CNC(=O)c1nc3cc(F)ccc3[nH]1)C(F)(F)F)nc2-c1ccc(F)cc1` [Example 405], the EC50 was greater than 200 nM.

For `C[C@]1(C(N)=O)COc2c1cc([C@@](O)(CNC(=O)c1cnn(-c3ccc(F)cc3)c1)C(F)(F)F)nc2-c1ccc(F)cc1` [Example 451], the EC50 was greater than 200 nM.

As to `C[C@]1(C(N)=O)COc2c1cc([C@@](O)(CNC(=O)c1cc(=O)[nH]c(C3CC3)n1)C(F)(F)F)nc2-c1ccc(F)cc1` [Example 372], the EC50 was greater than 200 nM.

As for `Cc1cc2cc(C(=O)NC[C@](O)(c3cc4c(c(-c5ccc(F)cc5)n3)OC[C@]4(C)C(N)=O)C(F)(F)F)ccc2n1C` [Example 175], the EC50 is greater than 200 nM.

For `C[C@]1(C(N)=O)COc2c1cc([C@@](O)(CNC(=O)c1cnc(-c3ccccc3F)s1)C(F)(F)F)nc2-c1ccc(F)cc1` [Example 484], the EC50 was greater than 200 nM.

Take `Cn1nc2ccccc2c1C(=O)NC[C@](O)(c1cc2c(c(-c3ccc(F)cc3)n1)OC[C@]2(C)C(N)=O)C(F)(F)F` [Example 424]: the EC50 was greater than 200 nM.

Regarding `C[C@]1(C(N)=O)COc2c1cc([C@@](O)(CNC(=O)c1ccc3nc(N)cn3c1)C(F)(F)F)nc2-c1ccc(F)cc1` [Example 56], the EC50 is greater than 200 nM.

With `C[C@]1(C(N)=O)COc2c1cc([C@@](O)(CNC(=O)c1ccnnc1)C(F)(F)F)nc2-c1ccc(F)cc1` [Example 406], the EC50 is greater than 200 nM.

For `Cc1cc[nH]c1C(=O)NC[C@](O)(c1cc2c(c(-c3ccc(F)cc3)n1)OC[C@]2(C)C(N)=O)C(F)(F)F` [Example 362], the EC50 is greater than 200 nM.

For `C[C@]1(C(N)=O)COc2c1cc([C@@](O)(CNC(=O)c1nc3ccccc3[nH]1)C(F)(F)F)nc2-c1ccc(F)cc1` [Example 420], the EC50 was greater than 200 nM.

For the molecule `C[C@]1(C(N)=O)COc2c1cc([C@@](O)(CNC(=O)c1ccc[nH]1)C(F)(F)F)nc2-c1ccc(F)cc1` [Example 391], the EC50 is greater than 200 nM.

Values taken from patent US12612412B2, “Antiviral heterocyclic compounds” (Enanta Pharmaceuticals, Inc., priority 2021, dated 2026).
